Reference: US20230416329A1, “A PEPTIDE WITH DISULFIDE BONDS AND INHIBITORY ACTIVITY AGAINST SERINE PROTEASES, DERIVED HYBRID PEPTIDES THEREOF, AND USES THEREOF” (INSTITUTE OF MATERIA MEDICA , CHINESE ACADEMY OF MEDICAL …, priority 2020, published 2023)
Bridge positions count the residues as written; N and C are the ends. Ends that are not written are not given here. PEG = not defined here

How the values were obtained:
normal ICR mice [1] = test: In vivo hypoglycemic activity of GLP-1 analogues, subcutaneous administration, oral glucose loading; parameters: species or system mouse; conditions: normal ICR mice, 1 μmol/kg s.c., glucose 2 g/kg by gavage
Protocol: FIG. 21. In vivo hypoglycemic activities of GLP-1 analogues by subcutaneous administration. Normal ICR mice were subcutaneously injected with GLP-1 and its analogues or corresponding volumes of saline (1.0 μmol/kg, n=10). After 30 min, glucose solution (2 g/kg) was administered by gavage, and blood was collected from the tail tip at 30, 60, and 120 min after glucose administration. Blood glucose was measured using glucose oxidase method, and blood glucose values and area under the blood glucose curve (AUC) were calculated at each timepoint.
The day before the experiment, all of the animals were fasted for 15-16 hours with water ad libitum. On the day of the experiment, the animals were randomly divided according to body weight (n=10). Firstly, the blood was collected from the tail tip at 0 hour, and then the animals were administered subcutaneously with GLP-1 analog (SEQ ID NOs: 194-201, 1 μmol/kg) or saline. After 30 minutes, the animals were administered by gavage with glucose solution (2 g/kg), and the blood was collected from the tail tip at 30, 60, and 120 minutes later. Blood glucose was measured using glucose oxidase method. The blood glucose and area under the blood glucose-time curve (AUC) were calculated.

normal ICR mice [2] = test: In vivo hypoglycemic activity of GLP-1 analogues, duodenal administration, oral glucose loading; parameters: species or system mouse; conditions: normal ICR mice, 10 μmol/kg duodenal, glucose 2 g/kg by gavage
Protocol: FIG. 22. In vivo hypoglycemic activities of GLP-1 analogues by duodenal administration. Normal ICR mice were anesthetized with inhalation of ether, and the duodenum was surgically removed and injected with GLP-1 and its analogues or a corresponding volume of saline ([…], n=9-11), and finally the incision was sewed. After 15 min, glucose solution (2 g/kg) was administered by gavage, and blood was collected from the tail tips at 15, 30, and 60 min after glucose administration. Blood glucose was measured using glucose oxidase method, and blood glucose values and area under the blood glucose curve (AUC) were calculated at each timepoint.
Drug delivery technology can use enteric coating technology to achieve oral administration targeting the small intestine. In order to test the feasibility of direct small intestinal administration of GLP-1, the present invention designs duodenal administration. The experimental process is as follows: The day before the experiment, all of the animals were fasted for 15-16 hours with water ad libitum. On the day of the experiment, the animals were randomly divided according to body weight (n=9-11 or 14-15 for combined administration). Firstly, the blood was collected from the tail tip at 0 hours, and then the animals were anesthetized by inhaling ether. A small incision was made near the underside of the stomach using surgical scissors, and the duodenum was carefully removed and administered with GLP-1 analogs (SEQ ID NOs: 194-209, 10 μmol/kg) or saline. Finally, the wound was sutured. After 15 minutes, the glucose solution (2 g/kg) was administered by gavage, and the blood were collected from the tail tips at 15, 30, and 60 minutes after glucose administration. Blood glucose was measured using the glucose oxidase method. The blood glucose at each moment and area under the blood glucose-time curve (AUC) were calculated.
AUC mg×h/dL)=(BG0+BG15)×15/60+(BG15+BG30)×15/60+(BG30+BG60)×30/60. BG0, BG15, BG30, and BG60 represent blood glucose levels at 0, 15, 30, and 60 minutes after glucose loading, respectively.

Substance: Ac-Cys-Gly-Arg-Ala-Thr-Lys-Ser-Ile-Pro-Pro-Ile-Cys-Phe-Gly-Gly-Ile-Pro-Ile-Gly-Gly-His-Ala-Glu-Gly-Thr-Phe-Thr-Ser-Asp-Val-Ser-Ser-Tyr-Leu-Glu-Gly-Gln-Ala-Ala-Lys-Glu-Phe-Ile-Ala-Trp-Leu-Val-Lys-Gly-Arg-Gly-Gly-Lys-NH2 (Ac-CGRATKSIPPICFGGIPIGGHAEGTFTSDVSSYLEGQAAKEFIAWLVKGRGGK-NH2; disulfide 1-12 (inferred)) [Acetylated and Amidated SEQ ID NO: 198]
- hypoglycemic activity, subcutaneous injection (in words) (normal ICR mice [1]): did not show any significant differences in their hypoglycemic activity compared to the unmodified molecules

Substance: Ac-Gly-Arg-Cys-Thr-Lys-Ser-Ile-Pro-Pro-Ile-Cys-Phe-Pro-Gly-Gly-Ile-Pro-Ile-Gly-Gly-His-Ala-Glu-Gly-Thr-Phe-Thr-Ser-Asp-Val-Ser-Ser-Tyr-Leu-Glu-Gly-Gln-Ala-Ala-Lys-Glu-Phe-Ile-Ala-Trp-Leu-Val-Lys-Gly-Arg-Gly-Gly-Lys-NH2 (Ac-GRCTKSIPPICFPGGIPIGGHAEGTFTSDVSSYLEGQAAKEFIAWLVKGRGGK-NH2; disulfide 3-11 (inferred)) [Acetylated and Amidated SEQ ID NO: 194]
- hypoglycemic activity, subcutaneous injection (in words) (normal ICR mice [1]): did not show any significant differences in their hypoglycemic activity compared to the unmodified molecules

Substance: Ac-Gly-Ile-Pro-Ile-Gly-Gly-His-Ala-Glu-Gly-Thr-Phe-Thr-Ser-Asp-Val-Ser-Ser-Tyr-Leu-Glu-Gly-Gln-Ala-Ala-Lys-Glu-Phe-Ile-Ala-Trp-Leu-Val-Lys-Gly-Arg-Gly-Gly-Lys-Gly-Arg-Cys-Thr-Lys-Ser-Ile-Pro-Pro-Ile-Cys-Phe-Pro-NH2 (Ac-GIPIGGHAEGTFTSDVSSYLEGQAAKEFIAWLVKGRGGKGRCTKSIPPICFP-NH2; disulfide 42-50 (inferred)) [Acetylated and Amidated SEQ ID NO: 196]
- hypoglycemic activity, subcutaneous injection (in words) (normal ICR mice [1]): did not show any significant differences in their hypoglycemic activity compared to the unmodified molecules

Substance: Ac-Gly-Ile-Pro-Ile-Gly-Gly-His-Ala-Glu-Gly-Thr-Phe-Thr-Ser-Asp-Val-Ser-Ser-Tyr-Leu-Glu-Gly-Gln-Ala-Ala-Lys-Glu-Phe-Ile-Ala-Trp-Leu-Val-Lys-Gly-Arg-Gly-Gly-Lys-Gly-Cys-Gly-Arg-Ala-Thr-Lys-Ser-Ile-Pro-Pro-Ile-Cys-Phe-NH2 (Ac-GIPIGGHAEGTFTSDVSSYLEGQAAKEFIAWLVKGRGGKGCGRATKSIPPICF-NH2; disulfide 41-52 (inferred)) [Acetylated and Amidated SEQ ID NO: 200]
- hypoglycemic activity, subcutaneous injection (in words) (normal ICR mice [1]): did not show any significant differences in their hypoglycemic activity compared to the unmodified molecules

Substance: Cys-Gly-Arg-Ala-Thr-Lys-Ser-Ile-Pro-Pro-Ile-Cys-Phe-Gly-Gly-Gln-Arg-Phe-Ser-Arg-Gly-Gly-His-Ala-Glu-Gly-Thr-Phe-Thr-Ser-Asp-Val-Ser-Ser-Tyr-Leu-Glu-Gly-Gln-Ala-Ala-Lys-Glu-Phe-Ile-Ala-Trp-Leu-Val-Lys-Gly-Arg-Gly-Gly-Lys (CGRATKSIPPICFGGQRFSRGGHAEGTFTSDVSSYLEGQAAKEFIAWLVKGRGGK; Synthetic construct BT9-N-GLP-1) [SEQ ID NO: 199]
- hypoglycemic activity, subcutaneous injection (in words) (normal ICR mice [1]): significantly reduced the blood glucose levels at 30 and 60 minutes after oral glucose loading and the AUC
- hypoglycemic activity, duodenal administration (in words) (normal ICR mice [2]): did not influence the blood glucose levels

Substance: Gly-Arg-Cys-Thr-Lys-Ser-Ile-Pro-Pro-Ile-Cys-Phe-Pro-Gly-Gly-Gln-Arg-Phe-Ser-Arg-Gly-Gly-His-Ala-Glu-Gly-Thr-Phe-Thr-Ser-Asp-Val-Ser-Ser-Tyr-Leu-Glu-Gly-Gln-Ala-Ala-Lys-Glu-Phe-Ile-Ala-Trp-Leu-Val-Lys-Gly-Arg-Gly-Gly-Lys (GRCTKSIPPICFPGGQRFSRGGHAEGTFTSDVSSYLEGQAAKEFIAWLVKGRGGK; Synthetic construct BT1-N-GLP-1) [SEQ ID NO: 195]
- hypoglycemic activity, subcutaneous injection (in words) (normal ICR mice [1]): significantly reduced the blood glucose levels at 30 and 60 minutes after oral glucose loading and the AUC
- hypoglycemic activity, duodenal administration (in words) (normal ICR mice [2]): did not influence the blood glucose levels

Substance: Gly-Gln-Arg-Phe-Ser-Arg-Gly-Gly-His-Ala-Glu-Gly-Thr-Phe-Thr-Ser-Asp-Val-Ser-Ser-Tyr-Leu-Glu-Gly-Gln-Ala-Ala-Lys-Glu-Phe-Ile-Ala-Trp-Leu-Val-Lys-Gly-Arg-Gly-Gly-Lys-Gly-Arg-Cys-Thr-Lys-Ser-Ile-Pro-Pro-Ile-Cys-Phe-Pro (GQRFSRGGHAEGTFTSDVSSYLEGQAAKEFIAWLVKGRGGKGRCTKSIPPICFP; Synthetic construct N-GLP-1-BT1) [SEQ ID NO: 197]
- hypoglycemic activity, subcutaneous injection (in words) (normal ICR mice [1]): significantly reduced the blood glucose levels at 30 and 60 minutes after oral glucose loading and the AUC
- hypoglycemic activity, duodenal administration (in words) (normal ICR mice [2]): did not influence the blood glucose levels

Substance: Gly-Gln-Arg-Phe-Ser-Arg-Gly-Gly-His-Ala-Glu-Gly-Thr-Phe-Thr-Ser-Asp-Val-Ser-Ser-Tyr-Leu-Glu-Gly-Gln-Ala-Ala-Lys-Glu-Phe-Ile-Ala-Trp-Leu-Val-Lys-Gly-Arg-Gly-Gly-Lys-Gly-Cys-Gly-Arg-Ala-Thr-Lys-Ser-Ile-Pro-Pro-Ile-Cys-Phe (GQRFSRGGHAEGTFTSDVSSYLEGQAAKEFIAWLVKGRGGKGCGRATKSIPPICF; Synthetic construct N-GLP-1-BT9) [SEQ ID NO: 201]
- hypoglycemic activity, subcutaneous injection (in words) (normal ICR mice [1]): significantly reduced the blood glucose levels at 30 and 60 minutes after oral glucose loading and the AUC
- hypoglycemic activity, duodenal administration (in words) (normal ICR mice [2]): did not influence the blood glucose levels

Substance: PEG-Gly-Ile-Pro-Ile-Gly-Gly-His-Ala-Glu-Gly-Thr-Phe-Thr-Ser-Asp-Val-Ser-Ser-Tyr-Leu-Glu-Gly-Gln-Ala-Ala-Lys-Glu-Phe-Ile-Ala-Trp-Leu-Val-Lys-Gly-Arg-Gly-Gly-Lys-Gly-Cys-Gly-Arg-Ala-Thr-Lys-Ser-Ile-Pro-Pro-Ile-Cys-Phe ({PEG}-GIPIGGHAEGTFTSDVSSYLEGQAAKEFIAWLVKGRGGKGCGRATKSIPPICF; disulfide 41-52 (inferred); reading uncertain; also: printed as PEG-Gly-Ile-Pro-Ile-Gly-Gly-His-Ala-Glu-Gly-Thr-Phe-Thr-Ser-Asp-Val-Ser-Ser-Tyr-Leu-Glu-Gly-Gln-Ala-Ala-Lys-Glu-Phe-Ile-Ala-Trp-Leu-Val-Lys-Gly-Arg-Gly-Gly-Lys-Gly-Cys-Gly-Arg-Ala-Thr-Lys-Ser-Ile-Pro-Pro-Ile-Cys-Phe) [N-Terminal PEGylated SEQ ID NO: 200]
- hypoglycemic activity, subcutaneous injection (in words) (normal ICR mice [1]): did not show any significant differences in their hypoglycemic activity compared to the unmodified molecules

Substance: PEG-Phe-Cys-Thr-Tyr-Ser-Ile-Pro-Pro-Gln-Cys-Tyr-Gly-Gly-Ile-Pro-Ile-Gly-Gly-His-Ala-Glu-Gly-Thr-Phe-Thr-Ser-Asp-Val-Ser-Ser-Tyr-Leu-Glu-Gly-Gln-Ala-Ala-Lys-Glu-Phe-Ile-Ala-Trp-Leu-Val-Lys-Gly-Arg-Gly-Gly-Lys ({PEG}-FCTYSIPPQCYGGIPIGGHAEGTFTSDVSSYLEGQAAKEFIAWLVKGRGGK; disulfide 2-10 (inferred); reading uncertain; also: printed as PEG-Phe-Cys-Thr-Tyr-Ser-Ile-Pro-Pro-Gln-Cys-Tyr-Gly-Gly-Ile-Pro-Ile-Gly-Gly-His-Ala-Glu-Gly-Thr-Phe-Thr-Ser-Asp-Val-Ser-Ser-Tyr-Leu-Glu-Gly-Gln-Ala-Ala-Lys-Glu-Phe-Ile-Ala-Trp-Leu-Val-Lys-Gly-Arg-Gly-Gly-Lys) [N-Terminal PEGylated SEQ ID NO: 204]
- hypoglycemic activity, subcutaneous injection (in words) (normal ICR mice [1]): did not show any significant differences in their hypoglycemic activity compared to the unmodified molecules
